Earlier results as cited in PMC9366781 (ACS Omega, 2022).
Read-outs that look alike come from different tables or passages of the source.

System: EGFR

Substance	affinity to the EGFR (different EGFR-positive cell lines (among these A431, MDA-MB-468, U87MG))	affinity to the EGFR (same study as GE11 monomer)
Tyr-His-Trp-Tyr-Gly-Tyr-Thr-Pro-Gln-Asn-Val-Ile [GE11]	more than 1 mM	
hEGF: endogenous EGFR ligand human epidermal growth factor, internal reference standard		5.1 ± 0.9 nM
